From PubChem BioAssay (NCI)
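Compound exposure: 48 hours, 5 concentrations, 96-well plates. The concentration for 50% growth inhibition is given as GI50. The concentration for full growth arrest is given as TGI.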

What was measured:
Assay in all cases: growth of human tumour cells (NCI), 48 h
SR leukemia = test system: SR leukemia
CCRF-CEM leukemia = test system: CCRF-CEM leukemia
HOP-62 NSCLC = test system: HOP-62 NSCLC
KM12 colon = test system: KM12 colon
CAKI-1 renal = test system: CAKI-1 renal
COLO 205 colon = test system: COLO 205 colon
MOLT-4 leukemia = test system: MOLT-4 leukemia
OVCAR-3 ovarian = test system: OVCAR-3 ovarian
OVCAR-4 ovarian = test system: OVCAR-4 ovarian
UO-31 renal = test system: UO-31 renal

| Compound | GI50 (SR leukemia) [µM] | TGI (SR leukemia) [µM] | GI50 (CCRF-CEM leukemia) [µM] | TGI (CCRF-CEM leukemia) [µM] | GI50 (HOP-62 NSCLC) [µM] | TGI (HOP-62 NSCLC) [µM] | GI50 (KM12 colon) [µM] | TGI (KM12 colon) [µM] | GI50 (CAKI-1 renal) [µM] | TGI (CAKI-1 renal) [µM] | GI50 (COLO 205 colon) [µM] | TGI (COLO 205 colon) [µM] | GI50 (MOLT-4 leukemia) [µM] | TGI (MOLT-4 leukemia) [µM] | GI50 (OVCAR-3 ovarian) [µM] | TGI (OVCAR-3 ovarian) [µM] | GI50 (OVCAR-4 ovarian) [µM] | TGI (OVCAR-4 ovarian) [µM] | GI50 (UO-31 renal) [µM] | TGI (UO-31 renal) [µM] |
| --- | --- | --- | --- | --- | --- | --- | --- | --- | --- | --- | --- | --- | --- | --- | --- | --- | --- | --- | --- | --- |
| Cc1ccc2c(N/N=C\c3ccco3)cc(C)nc2n1 | 2.15 | 6.07 | 2.23 | 6.37 | 10 | 24.4 | 4.98 | 17.9 | 2.93 | 12.8 | 1.88 | 3.75 | 2.67 | 8.83 | 2.81 | 7.49 | 2.99 | 9.19 | 2 | 5.24 |
| O=C1/C(=C/c2ccccc2)CN(CCC(=O)N2C/C(=C\c3ccccc3)C(=O)/C(=C/c3ccccc3)C2)C/C1=C\c1ccccc1 | 0.295 | > 100 | 0.687 | > 100 | 19.2 | 49.1 | 0.911 | 7.48 | 8.5 | 41.1 | 12.4 | > 67.5 | 2.6 | > 100 | 3.07 | 19.2 | 18.8 | 83.1 | 7.51 | 21.7 |
| CCC1CCCCN1C(=S)N/N=C(\C)c1ccccn1 (configuration not stated) | 0.0716 | > 100 | 0.0414 | > 100 | 0.0504 | 1.96 | 0.0732 | 1.52 | 0.0466 | 1.83 | 0.0227 | 0.379 | 0.0982 | > 20.7 | < 0.0133 | 1.16 | 0.0364 | 3.57 | 0.134 | 1.82 |
| NC1=NC(c2ccccc2)CC(c2cc(Cl)cc(Br)c2O)=N1 (configuration not stated) |  | > 100 |  | 35.6 |  | 25.1 |  | 26.1 |  | 26.8 |  | 25.6 |  | 11.6 |  | 30.2 |  | 41.9 |  | 32.3 |
| O=C(c1cc2c(C(F)(F)F)onc2c2ccccc12)C(F)(F)F |  | > 100 |  | 21.6 |  | 11.3 |  | 52.9 |  | 20.9 |  | 9.11 |  | > 56 |  | 13.8 |  | > 100 |  | 9.52 |
| CC(C(=O)c1ccccc1)C1(O)C(=O)Nc2ccccc21 (configuration not stated) |  | > 100 |  | > 100 |  | > 100 |  | > 100 |  | > 100 |  | > 100 |  | > 100 |  | > 100 |  | > 100 |  | > 100 |
| COc1ccccc1N1CCN(C(=O)c2ccc(NS(=O)(=O)c3cccc4cccnc34)cc2)CC1 | > 100 | > 100 | > 100 | > 100 | > 49.7 | > 100 | > 100 | > 100 | > 100 | > 100 | > 100 | > 100 | > 100 | > 100 | > 100 | > 100 | > 100 | > 100 | > 100 | > 100 |
| Cc1ccc(C(=O)CCC2C(=O)CC(C)(C)CC2=O)cc1 |  | 65.5 |  | 55.1 |  | > 100 |  | > 100 |  | 32 |  | > 100 |  | > 100 |  | > 100 |  | > 100 |  | > 100 |
| O=C1CC2C(=O)C1C(C(=O)O)C2C(=O)O (configuration not stated) |  | > 100 |  | > 100 |  | > 100 |  | > 100 |  | > 100 |  | > 100 |  | > 100 |  | > 100 |  | > 100 |  | > 100 |
| CCCCNC(=O)Oc1ccc2c(=O)c3sc4c(=O)c5ccccc5c(=O)c4c3c(=O)c2c1 | 0.77 | > 100 | 2 | 6.83 | 0.144 | 0.277 | 2 | 9.21 | 1.24 | 2.86 | 1.81 | 3.5 | 2.17 | 6.57 | 0.299 | 0.977 | 0.977 | 2.15 | 0.699 | 2.66 |
| CC(=O)Nc1ccc2oc(=O)c3ccccc3c2c1 |  | > 100 |  | > 100 |  | > 100 |  | > 100 |  | > 100 |  | > 100 |  | > 100 |  | > 100 |  | > 100 |  | > 100 |
| NC(=O)c1cc(Cl)ccc1NC(=O)c1ccccc1-c1ccccc1 | 0.439 | 63 | 0.499 | > 100 | 0.902 | > 100 | 0.872 | 46.3 | 0.735 | 64.3 | 0.923 | 5.52 | 0.743 | > 100 | 0.328 | 2.59 | 0.798 | > 100 | 1.97 | > 100 |
| CC1OC(O[C@H]2/C=C/C=C/C=C/C=C/C=C/C=C/C=C/[C@H](C)[C@@H](O)[C@@H](C)[C@H](C)OC(=O)C[C@H](O)C[C@H](O)CC[C@@H](O)[C@H](O)C[C@H](O)C[C@]3(O)C[C@H](O)[C@@H](C(=O)O)[C@H](C2)O3)C(O)C(N)C1O (some centres not stated) |  | 44.8 | 9.99 | 48.6 | 20.5 | 42.2 |  | 42.6 | 12.7 | 41.7 |  | 45.2 | 29.2 | 75.4 |  | 27.2 |  | 51.2 |  | 4.27 |
| CC(C)c1cccc(C(C)C)c1N=C(N)C#N |  | > 90 |  | > 100 |  | > 100 |  | > 100 |  | > 100 |  | > 59.1 |  | > 66 |  | > 100 |  | > 100 |  | > 100 |
| COc1cc(C)[nH]c(=O)c1CN1CCc2c(Cl)cc([C@H](OC)C3COC3)c(Cl)c2C1=O | > 100 | > 100 | > 100 | > 100 | > 100 | > 100 | > 100 | > 100 | > 100 | > 100 | > 100 | > 100 | > 100 | > 100 | > 100 | > 100 | > 100 | > 100 | > 100 | > 100 |
| COc1cccc(-c2nc(-c3ccc(NC(=O)c4ccccc4)cc3)[nH]c2-c2ccnc(Br)c2)c1 | 1.94 | > 100 | 3.15 | > 100 | 2.82 | > 100 | 2.29 | > 100 | 2.21 | 8.02 | 3.55 | > 100 | 2.7 | > 100 | 4.48 | > 100 | 4.9 | > 100 | 2.93 | > 100 |
| C=C1SC(=Nc2ccccc2Cl)N(C(=O)c2sc3ccccc3c2Cl)C1(C)C | 7.1 | > 39.6 | 3.93 | > 25.3 | 10.5 | > 51.1 | 4.01 | > 51.9 | 2.73 | 19.4 | 3.49 | 11 | 3.47 | > 25.4 | 7.55 | > 56.3 | 5.54 | > 100 | 3.64 | > 100 |
| O=C(O[C@H]1CN[C@H](C#Cc2cc3ncnc(Nc4ccc(OCc5cccc(F)c5)c(Cl)c4)c3s2)C1)N1CCOCC1 | 8.01 | > 23.7 | 2.2 | > 22 | > 13 | > 25 | 5.07 | 11.2 | 3.17 | > 25 | 5.32 | 11.1 | 6 | 23.2 | 4.12 | 11.1 | 10.3 | > 25 | 4.41 | > 15.8 |
| ClC1(c2ccccc2)c2ccc(Br)cc2-c2cc(Br)ccc21 |  | 70.6 |  | > 100 |  | 33.4 |  | 38.5 |  | 29.4 |  | 33.7 |  | > 100 |  | 30.6 |  | 27.3 |  | 29.6 |
| Cc1cccc2c1O/C(=C\c1ncc([N+](=O)[O-])n1C)C2=O |  | 0.0699 | 0.0701 | 0.597 | 0.599 | 1.97 | 0.262 | 0.877 | 0.135 | 0.479 | 0.254 | 1.42 | 0.0449 | 0.833 | 0.254 | 0.864 | 0.635 | 6.65 | 0.19 | 0.708 |
| CC1=C2C(=O)C(C)(C)C=C2C(=O)[C@](C)(O)C12CC2 |  | > 1 |  | > 1 |  | > 1 |  | > 1 |  | > 1 |  | > 1 |  | > 1 |  | > 1 |  | > 1 |  | > 1 |
| C#Cc1cccc(Nc2ncnc3ccc(-c4cnc(Cl)c(NS(C)(=O)=O)c4)cc23)c1 | 0.338 | 6.35 | 0.236 | 28.8 | 0.292 | 10.7 | 0.891 | 2.55 | 0.164 | 1.82 | 0.648 | 2.12 | 0.244 | 1.53 | 0.197 | 1.29 | 0.762 | 8.33 | 0.111 | 1.41 |
| O=C1c2cccc3cc([N+](=O)[O-])cc(c23)C(=O)N1CCN1CCCC1 | 0.0523 |  | 0.343 | 7.02 | 0.312 | 1.7 | 0.551 | 9.02 | 0.216 | 0.892 | 0.648 | 2.92 | 0.237 | > 100 | 1.74 | 5.71 | 1.48 | 11.7 | 0.281 | 3.17 |
| CCOC(=O)C#Cc1ccc([N+](=O)[O-])cc1 |  | 5.27 |  | 4.05 |  | 11.3 |  | 3.81 |  | 3.47 |  | 3.09 |  | 5.22 |  | 3.13 |  | 23.3 |  | 3.15 |
| CCC(O)(c1ccc(OC)cc1)C(c1ccc(OCc2ccccc2)cc1)c1ccc(OCc2ccccc2)cc1 (configuration not stated) |  | > 100 |  | > 100 |  | > 100 |  | > 100 |  | > 100 |  | > 100 |  | > 100 |  | > 100 |  | > 100 |  | > 100 |
| Oc1cccc(Cn2c(-c3cccc(O)c3O)nc3ccccc32)c1O | 3.42 | > 100 | 7.56 | > 100 | 3.77 | 38.7 | 8.62 | 30.2 | 2.26 | 5.85 | 11.7 | 32.2 | 3.21 | > 100 | 0.0683 | 0.76 | 5.2 | > 100 | 12.8 | > 100 |
| O=C1/C=C/[C@@H](O)[C@@H]2C[C@@H](O)C[C@H]2/C=C/CCC[C@H](CO)O1 | 2.5 | > 100 | 4.19 | > 100 | 3.66 | > 100 | 2.42 | > 100 | 3.74 | > 100 | 1.7 | 3.32 | 3.11 | > 100 | 2.2 | > 100 | 2.07 | > 100 | 2.98 | > 100 |
| Cc1cccc2c1NC(=O)[C@@]21[C@H](C(=O)c2ccccc2)[C@]2(C(=O)Nc3ccccc32)[C@H]2CCCN21 | 15.4 | > 100 | 59.6 | > 100 | 26.7 | > 100 | 58.9 | > 100 | 22.4 | > 100 | 46.2 | > 100 | 52.7 | > 100 | 15.5 | > 100 | 16.4 | 40.7 | 17.6 | > 100 |
| CCCCCCCC(=O)OCC1OC(n2cc(F)c(=O)[nH]c2=O)C(NC(=O)OCc2ccccc2)C(OC(=O)CCCCCCC)C1O (configuration not stated) |  | 64 |  | 66.1 |  | > 100 |  | > 100 |  | > 100 |  | 68.3 |  | > 100 |  | 47.7 |  | 83 |  | 0.865 |
